# Laboratory results taken from patent US7247627B2, “Salts and polymorphs of a pyrrole-substituted indolinone compound” (Pharmacia & Upjohn Company, priority 2003, dated 2007).
# Assay: Chemical stability in temperature and humidity-controlled chamber (Example 2)
# Type: physicochemical
# Parameters: key to Appearance: U: unchanged
# Protocol: Chemical stability was assessed for two different samples of 5-[(Z)-(5-fluoro-2-oxo-1,2-dihydro-3H-indol-3-ylidene)methyl]-N-[(2S)-2-hydroxy-3-morpholin-4-ylpropyl]-2,4-dimethyl-1H-pyrrole-3-carboxamide maleate salt, polymorph Form 1. Samples were maintained in a temperature and humidity-controlled chamber at 25° C. and 60% relative humidity (Tables 7 and 8) or at 40° C. and 75% relative humidity (Tables 9 and 10). At various time intervals, material was removed and tested for maleate counterion assay, impurities, water content and enantiomeric purity.
# The maleate counterion assay was determined by ion exchange chromatography (IEC).
# A suitable amount of the maleate salt is dissolved in water (Milli Q grade) and analyzed by IEC, and compared to calibration samples. Under these conditions, the peak due to maleic acid has a retention time of about 11 minutes. The amount of maleic acid in the sample is calculated as: % Assay=(Cs/W)×100 where Cs is the concentration of maleic acid found in the sample, and W is the theoretical sample concentration in the aqueous solution.
# The amounts of impurities and degradation products were determined by HPLC, using a Perkin Elmer LC 200 system with a diode array detector. The analytical column was a Waters Xterra RP18, 5 μm, 250×4.6 mm, and the guard column was a Waters Xterra RP18, 5 μm, 20×3.9 mm. Mobile phase A was a mixture of 90% 0.05 M ammonium acetate buffer at pH 5.5 and 10% acetonitrile. Mobile phase B was a mixture of 10% 0.05 M ammonium acetate buffer at pH 5.5 and 90% acetonitrile.
# Flow rate was 1 mL/min, injection volume 30 μL, room temperature, 435 nm detection. Under these conditions, the peak due to the maleate salt has a retention time of about 24 minutes. Impurities are characterized by their relative retention time (RRT). The impurity at RRT=0.26 is the E isomer. The other impurities were not characterized.
# Enantiomeric purity was determined by HPLC, using a Chiralpak AD analytical column, 10 μm, 250×4.6 mm (Daicel Chemical Industries, Ltd.) using an oven temperature of 30° C., a mobile phase of 2-propanol/heptane/diethylamine (50/50/0.1), an isocratic elution mode, a flow rate of 0.5 mL/min, injection volume of 50 μL, detector wavelength of 265 nm, dilution solvent 2-propanol/heptane (50/50) and a sample concentration of 0.3 mg/mL. Under these conditions, the S isomer has a retention time of about 15.5 minutes, and the R isomer has a retention time of about 22 minutes.
# Water content was determined according to USP 25, <921>, Method Ic.
# [1] = 25° C. and 60% Relative Humidity, 1 mo.
# [2] = 25° C. and 60% Relative Humidity, 3 mo.
# [3] = 25° C. and 60% Relative Humidity, 6 mo.
# [4] = 25° C. and 60% Relative Humidity, 9 mo.
# [5] = 25° C. and 60% Relative Humidity, 12 mo.
# [6] = 25° C. and 60% Relative Humidity, Initial
# [7] = 40° C. and 75% Relative Humidity, 1 mo.
# [8] = 40° C. and 75% Relative Humidity, 3 mo.
# [9] = 40° C. and 75% Relative Humidity, 6 mo.
# [10] = 40° C. and 75% Relative Humidity, Initial
smiles,measurement,setting,value
"Cc1[nH]c(/C=C2\C(=O)Nc3ccc(F)cc32)c(C)c1C(=O)NC[C@H](O)CN1CCOCC1 [Sample A, 5-[(Z)-(5-fluoro-2-oxo-1,2-dihydro-3H-indol-3-ylidene)methyl]-N-[(2S)-2-hydroxy-3-morpholin-4-ylpropyl]-2,4-dimethyl-1H-pyrrole-3-carboxamide]",Appearance,[1],U^a
same,Assay (% free base equivalent),[1],97.5 % free base equivalent
same,Enantiomeric Purity (%),[1],>99.9%
same,Impurities (%) RRT 0.26,[1],0.28%
same,Impurities (%) RRT 0.51,[1],0.41%
same,Impurities (%) RRT 0.71,[1],0.06%
same,Impurities (%) RRT 1.53,[1],0.11%
same,Impurities (%) RRT 1.74,[1],0.10%
same,Impurities (%) RRT 1.84,[1],0.13%
same,Total Impurities (%),[1],1.09%
same,Water Content (%),[1],0.53%
same,Appearance,[2],U^a
same,Assay (% free base equivalent),[2],98.4 % free base equivalent
same,Enantiomeric Purity (%),[2],>99.9%
same,Impurities (%) RRT 0.26,[2],0.05%
same,Impurities (%) RRT 0.51,[2],0.40%
same,Impurities (%) RRT 1.53,[2],0.12%
same,Impurities (%) RRT 1.74,[2],0.09%
same,Impurities (%) RRT 1.84,[2],0.12%
same,Total Impurities (%),[2],0.78%
same,Water Content (%),[2],0.68%
same,Appearance,[3],U^a
same,Assay (% free base equivalent),[3],98.4 % free base equivalent
same,Enantiomeric Purity (%),[3],>99.9%
same,Impurities (%) RRT 0.26,[3],0.07%
same,Impurities (%) RRT 0.51,[3],0.42%
same,Impurities (%) RRT 1.53,[3],0.12%
same,Impurities (%) RRT 1.74,[3],0.09%
same,Impurities (%) RRT 1.84,[3],0.12%
same,Total Impurities (%),[3],0.82%
same,Water Content (%),[3],0.46%
same,Appearance,[4],U^a
same,Assay (% free base equivalent),[4],98.4 % free base equivalent
same,Enantiomeric Purity (%),[4],>99.9%
same,Impurities (%) RRT 0.26,[4],0.15%
same,Impurities (%) RRT 0.51,[4],0.36%
same,Impurities (%) RRT 1.53,[4],0.12%
same,Impurities (%) RRT 1.74,[4],0.07%
same,Impurities (%) RRT 1.84,[4],0.10%
same,Total Impurities (%),[4],0.77%
same,Water Content (%),[4],0.42%
same,Appearance,[5],U^a
same,Assay (% free base equivalent),[5],98.2 % free base equivalent
same,Enantiomeric Purity (%),[5],>99.9%
same,Impurities (%) RRT 0.26,[5],0.06%
same,Impurities (%) RRT 0.51,[5],0.33%
same,Impurities (%) RRT 1.53,[5],0.13%
same,Impurities (%) RRT 1.74,[5],0.07%
same,Impurities (%) RRT 1.84,[5],0.11%
same,Total Impurities (%),[5],0.70%
same,Water Content (%),[5],0.74%
same,Assay (% free base equivalent),[6],98.7 % free base equivalent
same,Enantiomeric Purity (%),[6],>99.9%
same,Impurities (%) RRT 0.26,[6],0.09%
same,Impurities (%) RRT 0.51,[6],0.40%
same,Impurities (%) RRT 0.71,[6],0.05%
same,Impurities (%) RRT 1.53,[6],0.10%
same,Impurities (%) RRT 1.74,[6],0.09%
same,Impurities (%) RRT 1.84,[6],0.10%
same,Total Impurities (%),[6],0.83%
same,Water Content (%),[6],0.55%
same,Appearance,[7],U^a
same,Assay (% free base equivalent),[7],97.9 % free base equivalent
same,Enantiomeric Purity (%),[7],100.00%
same,Impurities (%) RRT 0.26,[7],0.29%
same,Impurities (%) RRT 0.51,[7],0.39%
same,Impurities (%) RRT 1.53,[7],0.11%
same,Impurities (%) RRT 1.74,[7],0.08%
same,Impurities (%) RRT 1.84,[7],0.13%
same,Total Impurities (%),[7],1.00%
same,Water Content (%),[7],0.57%
same,Appearance,[8],U^a
same,Assay (% free base equivalent),[8],98.5 % free base equivalent
same,Enantiomeric Purity (%),[8],100.00%
same,Impurities (%) RRT 0.26,[8],0.05%
same,Impurities (%) RRT 0.51,[8],0.40%
same,Impurities (%) RRT 1.53,[8],0.14%
same,Impurities (%) RRT 1.74,[8],0.08%
same,Impurities (%) RRT 1.84,[8],0.12%
same,Total Impurities (%),[8],0.80%
same,Water Content (%),[8],0.69%
same,Appearance,[9],U^a
same,Assay (% free base equivalent),[9],98.0 % free base equivalent
same,Enantiomeric Purity (%),[9],100.00%
same,Impurities (%) RRT 0.26,[9],0.07%
same,Impurities (%) RRT 0.51,[9],0.40%
same,Impurities (%) RRT 1.53,[9],0.15%
same,Impurities (%) RRT 1.74,[9],0.07%
same,Impurities (%) RRT 1.84,[9],0.12%
same,Total Impurities (%),[9],0.81%
same,Water Content (%),[9],0.42%
same,Assay (% free base equivalent),[10],98.7 % free base equivalent
same,Enantiomeric Purity (%),[10],100.00%
same,Impurities (%) RRT 0.26,[10],0.09%
same,Impurities (%) RRT 0.51,[10],0.40%
same,Impurities (%) RRT 0.71,[10],0.05%
same,Impurities (%) RRT 1.53,[10],0.10%
same,Impurities (%) RRT 1.74,[10],0.09%
same,Impurities (%) RRT 1.84,[10],0.10%
same,Total Impurities (%),[10],0.83%
same,Water Content (%),[10],0.55%
"Cc1[nH]c(/C=C2\C(=O)Nc3ccc(F)cc32)c(C)c1C(=O)NC[C@H](O)CN1CCOCC1 [Sample B, 5-[(Z)-(5-fluoro-2-oxo-1,2-dihydro-3H-indol-3-ylidene)methyl]-N-[(2S)-2-hydroxy-3-morpholin-4-ylpropyl]-2,4-dimethyl-1H-pyrrole-3-carboxamide]",Appearance,[1],U^a
same,Assay (% free base equivalent),[1],98.2 % free base equivalent
same,Impurities (%) RRT 0.26,[1],0.06%
same,Impurities (%) RRT 0.51,[1],0.62%
same,Impurities (%) RRT 0.71,[1],0.09%
same,Impurities (%) RRT 1.53,[1],0.09%
same,Impurities (%) RRT 1.74,[1],0.06%
same,Impurities (%) RRT 1.84,[1],0.08%
same,Total Impurities (%),[1],1.00%
same,Water Content (%),[1],0.50%
same,Appearance,[2],U^a
same,Assay (% free base equivalent),[2],98.2 % free base equivalent
same,Impurities (%) RRT 0.26,[2],0.18%
same,Impurities (%) RRT 0.51,[2],0.61%
same,Impurities (%) RRT 0.71,[2],0.09%
same,Impurities (%) RRT 1.53,[2],0.08%
same,Impurities (%) RRT 1.74,[2],0.05%
same,Impurities (%) RRT 1.84,[2],0.09%
same,Total Impurities (%),[2],1.10%
same,Water Content (%),[2],0.54%
same,Appearance,[3],U^a
same,Assay (% free base equivalent),[3],97.7 % free base equivalent
same,Impurities (%) RRT 0.26,[3],0.05%
same,Impurities (%) RRT 0.51,[3],0.56%
same,Impurities (%) RRT 0.71,[3],0.05%
same,Impurities (%) RRT 1.53,[3],0.08%
same,Impurities (%) RRT 1.74,[3],0.06%
same,Impurities (%) RRT 1.84,[3],0.09%
same,Total Impurities (%),[3],0.90%
same,Water Content (%),[3],0.47%
same,Assay (% free base equivalent),[6],97.8 % free base equivalent
same,Enantiomeric Purity (%),[6],>99.90%
same,Impurities (%) RRT 0.26,[6],0.21%
same,Impurities (%) RRT 0.51,[6],0.68%
same,Impurities (%) RRT 0.71,[6],0.07%
same,Impurities (%) RRT 1.53,[6],0.11%
same,Impurities (%) RRT 1.74,[6],0.07%
same,Impurities (%) RRT 1.84,[6],0.10%
same,Total Impurities (%),[6],1.24%
same,Water Content (%),[6],0.45%
same,Appearance,[7],U^a
same,Assay (% free base equivalent),[7],98.2 % free base equivalent
same,Impurities (%) RRT 0.26,[7],0.13%
same,Impurities (%) RRT 0.51,[7],0.61%
same,Impurities (%) RRT 0.71,[7],0.08%
same,Impurities (%) RRT 1.53,[7],0.10%
same,Impurities (%) RRT 1.74,[7],0.06%
same,Impurities (%) RRT 1.84,[7],0.08%
same,Total Impurities (%),[7],1.06%
same,Water Content (%),[7],0.49%
same,Appearance,[8],U^a
same,Assay (% free base equivalent),[8],97.2 % free base equivalent
same,Impurities (%) RRT 0.26,[8],0.18%
same,Impurities (%) RRT 0.51,[8],0.58%
same,Impurities (%) RRT 0.71,[8],0.08%
same,Impurities (%) RRT 1.53,[8],0.09%
same,Impurities (%) RRT 1.74,[8],0.05%
same,Impurities (%) RRT 1.84,[8],0.09%
same,Total Impurities (%),[8],1.06%
same,Water Content (%),[8],0.49%
same,Appearance,[9],U^a
same,Assay (% free base equivalent),[9],97.5 % free base equivalent
same,Enantiomeric Purity (%),[9],>99.9%
same,Impurities (%) RRT 0.26,[9],0.05%
same,Impurities (%) RRT 0.51,[9],0.54%
same,Impurities (%) RRT 1.53,[9],0.10%
same,Impurities (%) RRT 1.74,[9],0.05%
same,Impurities (%) RRT 1.84,[9],0.09%
same,Total Impurities (%),[9],0.83%
same,Water Content (%),[9],0.47%
same,Assay (% free base equivalent),[10],97.8 % free base equivalent
same,Enantiomeric Purity (%),[10],>99.95%
same,Impurities (%) RRT 0.26,[10],0.21%
same,Impurities (%) RRT 0.51,[10],0.68%
same,Impurities (%) RRT 0.71,[10],0.07%
same,Impurities (%) RRT 1.53,[10],0.11%
same,Impurities (%) RRT 1.74,[10],0.07%
same,Impurities (%) RRT 1.84,[10],0.10%
same,Total Impurities (%),[10],1.24%
same,Water Content (%),[10],0.45%
